Earlier results in patent publication US20090246278A1, “USE OF ESSENTIAL OILS TO REDUCE BENZODIAZEPINE REQUIREMENTS DURING MEDICAL PROCEDURES” (priority 2008, published 2009).

System: GABA receptors
Conditions: effects antagonized by flumazenil

Structure (SMILES): C=C1CCC2CC1C2(C)C (stereo not drawn) [β-pinene, beta-pinene]
- GABA-ergic properties: exert GABA-ergic properties

Structure (SMILES): CC1=CCC2CC1C2(C)C (stereo not drawn) [α-pinene, alpha-pinene]
- GABA-ergic properties: exert GABA-ergic properties
